Article PMC6271891, “Exploration of Piperidinols as Potential Antitubercular Agents” (Molecules, 2014)
Converted amounts (≈) assume the structure as drawn. “And” between values parts separate entries of the source, which are not always exact repeats. Equal entries are not always repeated. Where two headings read alike, the source gives them in different places.

Legend:
MMNAT [1] = molecular target: T1, MMNAT (Mycobacterium marinum, UniProt B2HIZ6); test: Time-dependent (irreversible) inactivation of MMNAT by the piperidinols; format: biochemical; conditions: for kobs: 24 °C, mean ± S.D. of triplicate; for t1/2, apparent inactivation half-life: t1/2 = 0.693/kobs
Procedure: (§1) An assay for measuring the formation of CoA [23] was modified and used to determine the activity of the enzyme in the presence of potential inhibitors exactly as described previously. Irreversible inhibition, progressive with time was measured for the piperidinol inhibitors by the protocol described in [13] and the values of the apparent first order rate constant (kobs) were determined using the Kitz and Wilson model. Adduct formation was determined as previously described by mass spectroscopy analysis.
Figure S1. The time-dependent inhibition of the MMNAT by the piperidinols (A) compounds 1, 3, 4, 6 at 11.9 μM concentration (B) 5, 7 at 5.9 μM concentration and (C) 8, […]
Semi-logarithmic plots showing the time-dependent inactivation of MMNAT by (A) compounds 1, 3, 4, 6 at 11.9 μM concentration (B) 5, 7 at 5.9 μM concentration and (C) 8, 9 (11.9 μM), 10 (23.8 μM) and 11 (5.9 μM). The enzyme activity was measured using the protocol described in [1]. The results are presented as the mean ± S.D. of triplicate measurements. The error bars are within the symbols.
The residual activity is shown as a percentage of a control. The data were fitted against the incubation time using the Semilog line (X is linear, Y is Log) module of GraphPad Prism 5.0. The slope of each line is equivalent to (−kobs/2.303) at each inhibitor concentration. […]

MMNAT [2] = molecular target: T1, MMNAT; test: NAT inhibition assay (CoA formation), MMNAT; format: biochemical; conditions: for inhibition at 50 µM: read-out: MMNAT % Inhibition
Procedure: (§2) The NAT enzymes from M. smegmatis, S. typhimurium, P. aeruginosa, M. marinum, M. tuberculosis, hamster NAT2 [45] and human NAT1 [46] were produced as recombinant proteins, purified as previously described and stored at −80 in 20 mM Tris-HCl pH 8 containing 1 mM dithiothreitol and 5% glycerol and thawed and used within 1–5 h.
as §1

M. bovis BCG = test: microbe, parasite or virus in culture; format: cell-based; conditions: Mycobacterium tuberculosis variant bovis BCG, 336 h, read-out: MIC M. bovis BCG
[3] = test system: M. tuberculosis strain H37Rv; test: Mycobacterial growth inhibition, spot culture on solid medium, M. tuberculosis H37Rv; format: cell-based; conditions: Mycobacterium tuberculosis, 336 h, read-out: MIC M. tuberculosis
RAW 264.7 cells = conditions: up to 50 μg/mL inhibitor concentration
mycobacteria = test system: mycobacteria; design: method as in PMID 23285185; conditions: cited from earlier work
TBNAT = molecular target: T2, TBNAT (Mycobacterium tuberculosis, UniProt P9WJI5); test: NAT inhibition assay (CoA formation), TBNAT; format: biochemical, M. tuberculosis; conditions: for inhibition at 50 µM: read-out: TBNAT % Inhibition; for IC50: inhibitor 0–250 μM
T2 construct: made in house
Procedure: as §2, §1

[4] = test system: M. bovis BCG str. Pasteur (ATCC 35734); test: microbe, parasite or virus in culture; format: cell-based; conditions: Mycobacterium tuberculosis variant bovis BCG, read-out: MIC against M. bovis BCG
[5] = 5ASA as substrate, mean ± S.D. of triplicate, read-out: MMNAT IC50 5ASA
[6] = strain H37Rv, solid medium 7H10-OADC, no growth after 2 weeks
[7] = 50 μM inhibitor, 150 μM HLZ and 120 μM Ac-CoA, mean ± S.D. of triplicate
[8] = 150 μM HLZ and 120 μM Ac-CoA, mean ± S.D. of triplicate
[9] = 150 μM HLZ and 120 μM Ac-CoA, inhibitor 0–250 μM, mean ± S.D. of triplicate, read-out: MMNAT IC50 HLZ

T1 sequence (B2HIZ6 entry or part of it): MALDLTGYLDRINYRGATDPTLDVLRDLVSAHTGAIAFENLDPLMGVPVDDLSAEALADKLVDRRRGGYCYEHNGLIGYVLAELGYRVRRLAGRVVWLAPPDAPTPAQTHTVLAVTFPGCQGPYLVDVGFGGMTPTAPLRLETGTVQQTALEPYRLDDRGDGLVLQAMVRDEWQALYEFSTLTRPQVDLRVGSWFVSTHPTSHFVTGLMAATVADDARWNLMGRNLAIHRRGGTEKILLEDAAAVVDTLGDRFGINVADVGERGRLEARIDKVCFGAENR
T2 sequence (P9WJI5 whole entry): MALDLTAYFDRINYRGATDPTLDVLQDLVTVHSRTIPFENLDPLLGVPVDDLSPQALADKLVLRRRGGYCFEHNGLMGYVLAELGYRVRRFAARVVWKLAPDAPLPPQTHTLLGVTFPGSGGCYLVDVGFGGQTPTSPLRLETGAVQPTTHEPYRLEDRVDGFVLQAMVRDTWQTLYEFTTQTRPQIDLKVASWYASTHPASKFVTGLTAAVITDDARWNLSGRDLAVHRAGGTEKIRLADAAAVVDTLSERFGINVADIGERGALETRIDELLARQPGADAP

Row | SMILES | kobs (MMNAT [1]; inhibitor 11.9 μM) | t1/2, apparent inactivation half-life (MMNAT [1]; inhibitor 11.9 μM) | IC50 (MMNAT [2]; [5]) | MIC (M. bovis BCG) | MIC [3, 6] | Cytotoxic effect on RAW 264.7 cells (RAW 264.7 cells) | MIC (antimycobacterial) (mycobacteria) | inhibition at 50 µM (TBNAT; [7]) | IC50 (TBNAT; [8]) | inhibition at 50 µM (MMNAT [2]; [7]) | IC50 (MMNAT [2]; [9]) | kobs (MMNAT [1]; inhibitor 5.9 μM) | t1/2, apparent inactivation half-life (MMNAT [1]; inhibitor 5.9 μM) | MIC ([3]; H37RV) | kobs (MMNAT [1]; inhibitor 23.8 μM) | t1/2, apparent inactivation half-life (MMNAT [1]; inhibitor 23.8 μM) | inhibition at 50 µM (TBNAT) | inhibition at 50 µM (MMNAT [2]) | MIC [4]
1 | CN1CCC(O)(c2ccccc2)C(C(=O)c2ccccc2)C1 (stereo not shown) [Compound 1] | 9 ± 2 10^−3 min^−1 | 81.5 min | 6 ± 1 µM | 6.3 to 12.5 µg/mL (≈ 21.3 to 42.3 µM) | 1 to 10 µg/mL (≈ 3.39 to 33.9 µM) | no cytotoxicity was observed | < 5 µg/mL | – | – | – | – | – | – | – | – | – | – | – | –
2 | CN1CCC(O)(c2ccc(Cl)cc2)C(C(=O)c2ccc(Cl)cc2)C1 (stereo not shown) [Compound 2] | 110 ± 2 10^−3 min^−1 | 6.3 min | 1.4 ± 0.6 µM | 6.3 to 12.5 µg/mL (≈ 17.3 to 34.3 µM) | – | – | – | 98 ± 1% | 1.6 ± 0.1 µM | 103 ± 2% | 0.16 ± 0.01 µM | – | – | – | – | – | – | – | –
3 | CN1CCC(O)(c2ccc(Br)cc2)C(C(=O)c2ccc(Br)cc2)C1 (stereo not shown) [Compound 3] | 74 ± 7 10^−3 min^−1 | 9.4 min | 1.3 ± 0.4 µM | 6.3 to 12.5 µg/mL (≈ 13.9 to 27.6 µM) | 5 to 10 µg/mL (≈ 11 to 22.1 µM) | – | – | 98 ± 3% | 2.9 ± 0.4 µM | 99 ± 1% | 0.08 ± 0.01 µM | – | – | – | – | – | – | – | –
4 | CCN1CCC(O)(c2ccccc2)C(C(=O)c2ccccc2)C1 (stereo not shown) [Compound 4] | 15 ± 1 10^−3 min^−1 | 45.6 min | 8 ± 1 µM | 6.3 to 12.5 µg/mL (≈ 20.4 to 40.4 µM) | 5 to 10 µg/mL (≈ 16.2 to 32.3 µM) | – | – | 72 ± 4% | 7.3 ± 0.3 µM | 126 ± 5% | 1.9 µM | – | – | – | – | – | – | – | –
5 | CCN1CCC(O)(c2ccc(F)cc2)C(C(=O)c2ccc(F)cc2)C1 (stereo not shown) [Compound 5] | – | – | 1.3 ± 0.5 µM | 6.3 to 12.5 µg/mL (≈ 18.2 to 36.2 µM) | 5 to 10 µg/mL (≈ 14.5 to 29 µM) | – | – | 108 ± 1% | 4.4 µM | 102 ± 3% | 0.5 µM | 638 ± 120 10^−3 min^−1 | 1.1 min | – | – | – | – | – | –
6 | CCCCN1CCC(O)(c2ccccc2)C(C(=O)c2ccccc2)C1 (stereo not shown) [Compound 6] | 104 ± 8 10^−3 min^−1 | 6.6 min | 5 ± 0.4 µM | 6.3 to 12.5 µg/mL (≈ 18.7 to 37 µM) | 1 to 5 µg/mL (≈ 2.96 to 14.8 µM) | – | – | 100 ± 3% | 6.9 ± 0.4 µM | 102 ± 3% | 2.6 ± 1 µM | – | – | – | – | – | – | – | –
7 | O=C(c1ccccc1)C1CN(C2CCCCC2)CCC1(O)c1ccccc1 (stereo not shown) [Compound 7] | – | – | 1.7 ± 0.2 µM | 6.3 to 12.5 µg/mL (≈ 17.3 to 34.4 µM) | – | – | – | – | – | – | – | 573 ± 25 10^−3 min^−1 | 1.2 min | 1 to 5 µg/mL (≈ 2.75 to 13.8 µM) | – | – | – | – | –
8 | O=C(c1ccccc1)C1CN(Cc2ccccc2)CCC1(O)c1ccccc1 (stereo not shown) [Compound 8] | 10 ± 1 10^−3 min^−1 | 71.4 min | – | 6.3 to 12.5 µg/mL (≈ 17 to 33.6 µM) | 0 to 1 µg/mL | – | – | 58 ± 2% | – | 101 ± 1% | 4.1 ± 0.4 µM | – | – | – | – | – | – | – | –
9 | O=C(c1ccccc1)C1CN(C2CCCO2)CCC1(O)c1ccccc1 (stereo not shown) [Compound 9] | 163 ± 39 10^−3 min^−1 | 4.2 min | 9 ± 0.9 µM | – | 0 to 1 µg/mL | – | – | 51 ± 3% | – | 100.8 ± 0.5% | 2.5 ± 0.3 µM | – | – | – | – | – | – | – | –
10 | O=C(c1ccccc1)C1CN(C2CCS(=O)(=O)C2)CCC1(O)c1ccccc1 (stereo not shown) [Compound 10] | – | – | > 30 µM | 3.1 to 6.3 µg/mL (≈ 7.76 to 15.8 µM) | – | – | – | 47 ± 2% | – | 99 ± 0.7% | 13 ± 1 µM | – | – | – | 19 ± 1 10^−3 min^−1 | 37.1 min | – | – | –
11 | CC1(C)CC(N2CCC(O)(c3ccccc3)C(C(=O)c3ccccc3)C2)CC(C)(C)N1 (stereo not shown) [Compound 11] | – | – | 1.1 ± 0.3 µM | 6.3 to 12.5 µg/mL (≈ 15 to 29.7 µM) | 1 to 5 µg/mL (≈ 2.38 to 11.9 µM) | no cytotoxicity was observed | – | – | – | – | – | 34 ± 1 10^−3 min^−1 | 20.2 min | – | – | – | – | – | –
12 | OC(CCN1CCCCC1)c1ccc2c(c1)OCO2 (stereo not shown) [Compound 15] | – | – | – | – | – | – | – | – | 20 ± 3 µM | – | 1 ± 0.1 µM | – | – | – | – | – | 86 ± 2% | 103 ± 3% | 125 µM to 250 µM and 33 µg/mL to 66 µg/mL
13 | C=CCC(O)(CCN1CCOCC1)c1ccc(F)cc1 (stereo not shown) [Compound 16] | – | – | – | – | – | – | – | – | – | – | 6.4 ± 0.6 µM | – | – | – | – | – | -14 ± 3% | 99 ± 1% | –
